# Measured values from ChEMBL document CHEMBL1125329, “4-Oxospiro[benzopyran-2,4'-piperidines] as class III antiarrhythmic agents. Pharmacological studies on 3,4-dihydro-1'-[2-(benzofurazan-5-yl)- ethyl]-6-methanesulfonamidospiro[(2H)-1-benzopyran-2,4'-piperidin]-4-on e (L-691,121)” (J Med Chem, 1992).
# Key:
# Mustela putorius furo = species on record: Mustela putorius furo; assay: Compound was evaluated for the molar concentration required to prolong effective refractory period (ERP) 25% above baseline in ferret isolated right ventricular papillary muscles using a paired pacing protocol; type: functional, Muscle tissue
# Canis familiaris = assay: Compound was evaluated for the intravenous dose required to prolong relative refractory period (RRP) 20 ms above baseline in chloralose anesthetized dogs using a paired pacing protocol; type: functional; conditions: Canis lupus familiaris
# [1] = target: T1, Alpha-1A adrenergic receptor (Bos taurus, UniProt P18130); assay: Compound was evaluated for binding affinity at bovine brain Alpha-1 adrenergic receptor in a filtration-based assay using [3H]prazosin as the radioligand
# T1 sequence (P18130 whole entry): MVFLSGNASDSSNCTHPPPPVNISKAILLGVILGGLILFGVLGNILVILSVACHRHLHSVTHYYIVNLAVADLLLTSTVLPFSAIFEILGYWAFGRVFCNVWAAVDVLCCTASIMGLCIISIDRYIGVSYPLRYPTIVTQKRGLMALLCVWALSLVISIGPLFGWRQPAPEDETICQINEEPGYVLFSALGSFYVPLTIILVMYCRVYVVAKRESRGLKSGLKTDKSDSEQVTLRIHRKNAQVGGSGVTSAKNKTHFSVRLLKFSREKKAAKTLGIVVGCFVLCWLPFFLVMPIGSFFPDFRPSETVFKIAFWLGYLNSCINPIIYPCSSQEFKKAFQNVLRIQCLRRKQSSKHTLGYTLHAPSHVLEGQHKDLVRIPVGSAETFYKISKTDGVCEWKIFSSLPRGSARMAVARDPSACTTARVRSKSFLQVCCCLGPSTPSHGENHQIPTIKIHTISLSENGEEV
# [2] = target: T1, Alpha-1A adrenergic receptor; assay: Compound was evaluated for binding affinity at bovine brain Alpha-1 adrenergic receptor determined in a filtration-based assay using [3H]prazosin as the radioligand.
Compound,IC50 [1] [nM],IC50 [2] [nM],EC25 (Mustela putorius furo) [nM],ED20 (Canis familiaris) [µg/kg]
CN(CCOc1ccc(NS(C)(=O)=O)cc1)CCc1ccc(NS(C)(=O)=O)cc1 [DOFETILIDE],,,18,5.2
CS(=O)(=O)Nc1ccc2c(c1)C(=O)CC1(CCN(CCc3ccc4nonc4c3)CC1)O2.Cl,,,13,2.8
CS(=O)(=O)Nc1cccc2c1OC1(CCN(CCc3ccccn3)CC1)CC2=O.Cl.O,,,7400,
Cl.O=C1CC2(CCN(CCc3ccccn3)CC2)Oc2ccccc21,,,160,500
Cc1cccc(CCN2CCC(C(=O)c3ccc(NS(C)(=O)=O)cc3)CC2)n1,,,58,17.4
CS(=O)(=O)Nc1ccc2c(c1)OC1(CCN(CCc3ccccn3)CC1)CC2=O.Cl.O,,,6600,

# Second part, led by results:
IC50 [1] [nM],IC50 [2] [nM],Compound,EC25 (Mustela putorius furo) [nM],ED20 (Canis familiaris) [µg/kg]
3000,,CS(=O)(=O)Nc1ccc2c(c1)CCC1(CCN(CCc3ccc4nonc4c3)CC1)O2.Cl,54,
500,,CS(=O)(=O)Nc1ccc2c(c1)C(=O)CC1(CCN(CCc3ccccn3)CC1)O2.Cl.O,33,10
1000,,CS(=O)(=O)Nc1ccc2c(c1)C(=O)CC1(CCN(CCc3ccc(C#N)cc3)CC1)O2.Cl,3,7
15000,,CS(=O)(=O)Nc1ccc(CCN2CCC3(CC2)CC(=O)c2cc(NS(C)(=O)=O)ccc2O3)cc1.Cl,74,3
,900,CS(=O)(=O)Nc1ccc2c(c1)C(=O)CC1(CCN(CCc3ccc([N+](=O)[O-])cc3)CC1)O2.Cl,5,
100,,CS(=O)(=O)Nc1ccc2c(c1)C(=O)CC1(CCN(CCc3ccccc3)CC1)O2.Cl,7,5
2300,,CS(=O)(=O)Nc1ccc2c(c1)C(O)CC1(CCN(CCc3ccc4nonc4c3)CC1)O2.Cl (centres undefined),900,200
